This passage reports GI50 and TGI results from PubChem BioAssay (NCI).

Among the test systems are HCT-15 colon; MOLT-4 leukemia; NCI/ADR-RES ovarian; SR leukemia.
Common to all, as to experiment: growth of human tumour cells (NCI), 48 h

Each structure is given as a SMILES string.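 Method: 48-hour compound exposure of cells in 96-well plates, five concentrations, linear interpolation of endpoints. The concentration for 50% growth inhibition is given as GI50. At the TGI there is no net growth.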

With `NS(=O)(=O)c1ccc(-n2cc(-c3cccc(NC(=O)c4ccc(Cl)c(C(F)(F)F)c4)c3)nn2)cc1`, the GI50 in the assay with HCT-15 colon was 7.8 µM; in the assay on MOLT-4 leukemia it was 3.1 µM; in the assay on NCI/ADR-RES ovarian, 80.7 µM; in the assay with SR leukemia it was 3.9 µM. Further, the TGI is 68.5 µM in the assay with HCT-15 colon, more than 100 µM in the assay with MOLT-4 leukemia, more than 100 µM in the assay with NCI/ADR-RES ovarian and more than 100 µM with SR leukemia.
